The values below come from paper PMC10762078, “Role of UPF1-LIN28A interaction during early differentiation of pluripotent stem cells” (Nature Communications, 2024).

“Also recorded” adds a separate entry of the source. Ends that are not written are not given here.

One assay relates to CHA15 cells. The assay can be described thus: Immunofluorescence counting of OCT4- and NANOG-positive cells (Fig. 6c). In kind it is cell-based, human. The following applies: for NANOG-positive cells, fluorescence quantification, mean / OCT4-positive cells, fluorescence quantification, mean: CHA15, CPP-peptide 10 μM, mean of 4 sets; for NANOG fluorescence, difference between means vs P1 ± SEM / OCT4 fluorescence, difference between means vs P1 ± SEM: CHA15, vs CPP-P1. The protocol: (§1) For CPP-conjugated peptide delivery, HeLa, 293T, and PA-1 cells were incubated with CPP-conjugated peptides or CPP-FITC at 2 μM in DMEM with 10% FBS for 12 h a day before cell harvest. hPSCs were treated with CPP-conjugated peptides at 10 μM in mTeSR Plus Medium, and the peptide-containing medium was changed every day over 10 days. The ROCK inhibitor (Tocris Bioscience, Y-27632) treated-hPSCs were dissociated into single cells using Accutase (Merck, SCR005) and differentiated into ectoderm, mesoderm, and endoderm using the STEMdiff Trilineage Differentiation Kit ([…] Technologies, 05230) following the manufacturer’s protocol. Differentiated cells treated with CPP-conjugated peptides were analysed at 0, 3, and 5 days for ectoderm and endoderm, and at 0, 3, and 4 days for mesoderm.
hPSCs or differentiated cells were fixed in 4% paraformaldehyde (Sigma-Aldrich). After 15–20 min, the cells were washed with 0.1% bovine serum albumin in phosphate-buffered saline (BSA/PBS) thrice and blocked for 1 h by adding 0.3% Triton X-100 (Sigma-Aldrich) and 10% normal goat serum (NGS; Fitzgerald industries, NG22S). After blocking, cells were incubated with the following primary antibodies: anti-UPF1 (Cell Signaling Technology, 12040; 1:500), LIN28A (Cell Signaling Technology, 3978; 1:500), OCT4 (Santa Cruz, sc-5279; 1:500), NANOG (Cell Signaling Technology, 4903; 1:500), DLK1 (GeneTex, GTX60511; 1:500), SOX1 (Cell Signaling Technology, 4194; 1:500), or LHX2 (GeneTex, GTX129241; 1:500). Primary antibodies were incubated overnight at 4 °C followed by incubation with the following secondary antibodies: Cy3 (Jackson ImmunoResearch, 115-165-146; 1:500) or Alexa Fluor 488 (Invitrogen, A-11008; 1:500) followed by the incubation with secondary fluorescence-conjugated antibodies for 1 h. The cells were mounted in […] with DAPI mounting medium (Vector Laboratories, H1200).
Immunofluorescence staining, proximity ligation assay imaging, and cell-penetrating efficiency of CPP-FITC were imaged with a confocal laser scanning microscope (Leica, TSC SP5) or immunofluorescence microscope (Leica, DM5000B). Z-stacks were captured, with sections spanning the entire cell. The LAS X Life Science program was used to obtain the maximum intensity projections and cross-sections of the confocal images.

The subject of the next assay is p-UPF1 (Ser1096). The assay can be described thus: Western blot of p-UPF1 (Ser1096) in CPP-peptide-treated hPSCs. It is filed as cell-based, human. As to conditions: for p-UPF1 (Ser1096)/Calnexin, mean: relative to CPP-P1 = 100, n = 3. The protocol: as §1
Protein samples were loaded for electrophoresis on sodium dodecyl sulphate (SDS) polyacrylamide gels, followed by Coomassie blue staining or transferred to nitrocellulose membranes (Cytiva) for WB. After blocking with 5% non-fat milk (Cellconic) in Tris-buffered saline with Tween-20 for 30 min at room temperature, the membranes were incubated with the following primary antibodies: anti-FLAG (GenScript, A00187; 1:2000), UPF1 (Cell Signaling Technology, 12040; 1:4000), UPF2 (Cell Signaling Technology, 11875; 1:2000), eIF4E (Cell Signaling Technology, 2067; 1:2000), β-actin (Sigma-Aldrich, A2228; 1:4000), GST (Cytiva, 27-4577-01; 1:2000), MYC (Calbiochem, OP10; 1:2000), Calnexin (Cell Signaling Technology, 2679; 1:4000), LIN28A (Cell Signaling Technology, 3978; 1:2000), pSer1096 phosphorylated UPF1 (1:2000)[58], or p-Thr28 phosphorylated UPF1 (ImmuQuest, IQ653; 1:2000). Primary antibodies were incubated overnight at 4 °C and then washed thrice with TBS-T, followed by incubation with secondary antibodies: Goat anti-Rabbit IgG (Invitrogen, 31460; 1:4000), Goat anti-Mouse IgG (Invitrogen, 31430; 1:4000), or Horse anti-Goat IgG (Vector Laboratories, PI-9500; 1:4000) for 1 h at room temperature. For pull-downed protein detection, all primary and secondary antibodies were diluted at 1:10,000. The blots were imaged using ChemiDoc XRS+ System (Bio-Rad) and the greyscale intensity values were quantified using Image Lab 3.0 software (Bio-Rad).
DAPI FITC Merge DAPI FITC Merge CHA15 H9 Pro2 H9
No peptide CPP-FITC Calnexin
For 2-day treatm ent For 4-day treatm ent […]
Student’s t-test was used. Data are presented as m ean values ± S.D (b) and mean values ± SEM (c and d). All statistical test us ed wer e two-s ided. T he m inim um num ber of independent biological replicate experim ents was a, b, and d n = 3, c n = 5. T he experim ents wer e conducted three tim es, each iteration producing consistent results. […]

On to “KKKWCRKKKSSADEKRYRALKRTAERELLMNA [CPP-P8, CPP conjugated to P8]”, for which, in the assay on CHA15 cells (CHA15, proliferative state), the “levels of OCT4 and NANOG” value was “significantly decreased”. In the assay with p-UPF1 (Ser1096) (CHA15 and Pro2 cells, 10 μM), the “phosphorylated UPF1” value was “increased phosphorylated UPF1 in CHA15 and Pro2 cells; also recorded: upregulation of p-UPF1 in CHA15 and Pro2 cells”. Moreover, in the assay on p-UPF1 (Ser1096) (H9, 4-day treatment), the “p-UPF1 levels after longer treatment” value was “upregulates the levels of p-UPF1”. For the same substance, in the assay with p-UPF1 (Ser1096) (H9 cells, short treatment, 10 μM), the “p-UPF1 levels” value is given as “did not elicit a corresponding increase in p-UPF1 levels in H9 cells”.
Consider KKKWCRKKKSSADEKRYRALKRTAERELLMNA [P8], for which, in the assay on CHA15 cells, the “NANOG-positive cells, fluorescence quantification, mean” value (“NANOG-positive cells” for short) came out at 14.24; the “OCT4-positive cells, fluorescence quantification, mean” value (shortened to “OCT4-positive cells”) came to 22.84; the “NANOG fluorescence, difference between means vs P1 ± SEM” value is listed as -71.49 ± 1.616; the “OCT4 fluorescence, difference between means vs P1 ± SEM” value is reported as -69.57 ± 2.939. Moreover, the “p-UPF1 (Ser1096)/Calnexin, mean” value in the assay on p-UPF1 (Ser1096) (CHA15, 2-day treatment) was determined as 203%. Also, the “p-UPF1 (Ser1096)/Calnexin, mean” value in the assay on p-UPF1 (Ser1096) (H9, 2-day treatment) is 91%. In addition, the “p-UPF1 (Ser1096)/Calnexin, mean” value in the assay on p-UPF1 (Ser1096) (H9, 4-day treatment) was 226%. Also, the “p-UPF1 (Ser1096)/Calnexin, mean” value with p-UPF1 (Ser1096) (Pro2, 2-day treatment) was 244%.
With “N-MPELQKLQQLKDE-C [P2, peptide derived from the UPF1 (419–700) domain]”, in the assay on CHA15 cells, the “NANOG-positive cells” value came out at 81.51; the “OCT4-positive cells” value is 89.62; the “NANOG fluorescence, difference between means vs P1 ± SEM” value is listed as -4.223 ± 2.867; the “OCT4 fluorescence, difference between means vs P1 ± SEM” value is recorded as -2.780 ± 1.262.
As for “N-QKLDQKELQLEPM-C [P1, reference compound]”, the “NANOG-positive cells” value in the assay on CHA15 cells turned out to be 85.74. Moreover, in the assay with CHA15 cells, the “OCT4-positive cells” value worked out at 92.4. The “p-UPF1 (Ser1096)/Calnexin, mean” value with p-UPF1 (Ser1096) (CHA15, 2-day treatment) amounted to 100%; in the assay on p-UPF1 (Ser1096) (H9, 2-day treatment), 100%; in the assay with p-UPF1 (Ser1096) (H9, 4-day treatment), 100%; in the assay on p-UPF1 (Ser1096) (Pro2, 2-day treatment), 100%.
